Experimental data: PubChem BioAssay (NCI)
“And” between values parts separate entries of the source, which are not always exact repeats. Equal entries are not always repeated.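 Briefly, cells in 96-well plates were exposed to five compound concentrations for 48 h, and endpoints were estimated by linear interpolation. GI50 marks 50% less growth. TGI: total growth inhibition.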

Experiments:
Assay in all cases: DTP human tumour cell line panel, 48 h
[1] = system: IGROV1 ovarian
[2] = system: HOP-92 NSCLC
[3] = system: K-562 leukemia
[4] = system: PC-3 prostate
[5] = system: SF-539 CNS
[6] = system: EKVX NSCLC
[7] = system: SF-268 CNS
[8] = system: HS 578T breast

SMILES | TGI [1] | TGI [2] | TGI [3] | TGI [4] | GI50 [5] | TGI [5] | GI50 [6] | TGI [6] | GI50 [7] | TGI [7] | GI50 [8] | TGI [8] | GI50 [1] | GI50 [2] | GI50 [3] [nM] | GI50 [4]
O=C1C=C2C=CC3CC2(O1)C1CCCCN31 (stereo not drawn) | 95 µM and 30.8 µM and > 100 µM | 65.8 µM and 48.3 µM and 66 µM | > 100 µM and 41.8 µM | > 100 µM and 73.4 µM | 12.7 µM and 27 µM and 23.2 µM | 35.8 µM and > 100 µM and 75.4 µM | 14.1 µM and 11.6 µM and 38.6 µM | 57.4 µM and 35.5 µM and > 100 µM | 25.4 µM and 12.7 µM and 41.2 µM | > 100 µM | 67.8 µM and 29.3 µM and 63.3 µM | > 100 µM | – | – | – | –
Cc1cc(C(=O)Nc2cc(Oc3ccc4nc(NC(=O)C5CC5)cn4n3)ccc2C)n(C)n1 | > 10 µM | > 10 µM | > 10 µM | > 10 µM | 3.35 µM | > 10 µM | > 10 µM | > 10 µM | > 10 µM | > 10 µM | 7.48 µM | > 10 µM | 5.06 µM | 3270 nM | 555 | > 10000 nM
CCCCCCCCCCCC[N+](C)(C)Cc1ccccc1 | 3.66 µM | – | 6.63 µM | 3.25 µM | 1.66 µM | 3.17 µM | – | – | 2.02 µM | 4.45 µM | 1.95 µM | 5.96 µM | 1.43 µM | – | 1560 | 490 nM
CN(C)c1ccc(C(=N)c2ccc(N(C)C)cc2)cc1 | 31.7 µM and > 100 µM | 6.24 µM and 8.69 µM | 64.9 µM | 36.2 µM and > 100 µM | 2.88 µM and 3.5 µM | 11.5 µM and 25.7 µM | 5.33 µM and 5.17 µM | > 100 µM | 4.64 µM and 11.6 µM | 43.4 µM and > 100 µM | 1.73 µM and 4.1 µM | 7.64 µM and 59.3 µM | 3.45 µM and 7.32 µM | 942 nM and 1520 nM | 553 | 3750 nM and 3740 nM
Cc1ccc(-c2c(C#N)[n+](=O)c3cc(F)c(F)cc3n2[O-])cc1 | > 100 µM | 3.84 µM | 4.29 µM | 3.35 µM | 15.3 µM | 33.9 µM | 21.2 µM | 38.9 µM | 14.3 µM | 30 µM | 25.3 µM | > 100 µM | 3.59 µM | 1680 nM | 1640 | 1430 nM
c1cc(CN2CCCNCCNCCCNCC2)ccc1CN1CCCNCCNCCCNCC1 | > 100 µM | > 100 µM | > 100 µM | > 100 µM | > 100 µM | > 100 µM | > 100 µM | > 100 µM | > 100 µM | > 100 µM | > 100 µM | > 100 µM | > 100 µM | > 100000 nM | > 100000 | > 100000 nM
COc1cccc(-n2ncc3c(N/N=C/c4ccc(C)cc4)ncnc32)c1 | > 25 µM | > 25 µM | > 25 µM | > 25 µM | > 25 µM | > 25 µM | > 25 µM | > 25 µM | > 25 µM | > 25 µM | > 17.4 µM | > 25 µM | > 25 µM | 2140 nM | > 25000 | > 25000 nM
Nc1ncnc2c1c(-c1ccc(Oc3ccccc3)cc1)nn2C[C@H]1SSC[C@@H]1O | 8.11 µM | 7.15 µM | 4.08 µM | 18.2 µM | 1.41 µM | 12 µM | 0.365 µM | 12.1 µM | – | – | 2.81 µM | 10.6 µM | 1.43 µM | 1620 nM | 342 | 3010 nM
CC(CN(C)C)S(=O)(=O)c1ccc(-c2cnc(N)c(C(=O)Nc3ccccc3)n2)cc1 (stereo not drawn) | 36 µM | 34.7 µM | 22 µM | > 73.8 µM | 2.75 µM | 9.76 µM | 31.1 µM | > 100 µM | 6.8 µM | 39.8 µM | 2.41 µM | 27 µM | 3.15 µM | 6860 nM | 3000 | 10900 nM
CC/C=C\C[C@H](O)C/C=C1/C(=O)C=C[C@@H]1C/C=C\CCCC(=O)OC(C)C | 7.75 µM | 4.88 µM | 20.7 µM | 3.49 µM | – | – | 3.04 µM | 11.6 µM | 2 µM | 6.31 µM | 5.21 µM | 41.2 µM | 2.43 µM | 2250 nM | 391 | 1580 nM
CN(C)C[C@H]1CCn2c(c(C3=C(c4cn(C)c5ccccc45)C(=O)NC3=O)c3ccccc32)C1 | 12.2 µM | 10.9 µM | 10.8 µM | 8.56 µM | 4.01 µM | 7.73 µM | – | – | 4.71 µM | 9.04 µM | 2.78 µM | 10.1 µM | 6.11 µM | 4190 nM | 5290 | 3920 nM
O=C(O)C1CCN(Cc2oc(CO)cc(=O)c2O)C1 (stereo not drawn) | > 100 µM | > 100 µM | > 100 µM | > 100 µM | – | – | – | > 100 µM | – | > 100 µM | – | > 100 µM | – | – | – | –
Cc1c(NC(=O)CCl)c(=O)oc2c(C)c3occc(=O)c3cc12 | 31.2 µM | 27.5 µM | 52 µM | – | – | – | – | 38.2 µM | – | 25.9 µM | – | 59.6 µM | – | – | – | –
C[C@]12CC[C@@H]3c4ccc(O)cc4CC[C@H]3[C@@H]1CC[C@@H]2NS(=O)(=O)c1cccc(Cl)c1 | 16.8 µM | 5.69 µM | 11.8 µM | 11.9 µM | 1.76 µM | 3.45 µM | – | – | 3.23 µM | 13.6 µM | 3.09 µM | 13.1 µM | 4.23 µM | 2080 nM | 3140 | 2980 nM
CCN(CC)CCCOc1ccc2ncnc(Nc3ccc(Oc4cccc(C(F)(F)F)c4)c(Cl)c3)c2c1 | – | 2.61 µM | 8.73 µM | 3.58 µM | 1.74 µM | 3.17 µM | 1.26 µM | 2.85 µM | 1.44 µM | 3.07 µM | – | – | – | 1230 nM | 1210 | 1750 nM
CC(=O)O[C@@]12CO[C@@H]1C[C@H](O)[C@@]1(C)C(=O)[C@H](O)C3=C(C)[C@@H](OC(=O)[C@H](O)[C@@H](NC(=O)OC(C)(C)C)c4ccccc4)C[C@@](O)([C@@H](OC(=O)c4ccccc4)C12)C3(C)C (stereo partly drawn) | > 100 µM | 17.1 µM and 8.9 µM | 50 µM | 50 µM and 80.8 µM | < 0.005 µM | 19.3 µM and 22.9 µM | – | – | – | 81.5 µM | < 0.005 µM | 23.5 µM and > 100 µM | 0.0357 µM | < 5 nM and 18.1 nM | < 5 | < 5 nM and 21.8 nM
COc1ccc(-c2nsc3c2NC(=O)CC3c2ccc3c(c2)OCCO3)cc1 (stereo not drawn) | > 100 µM | > 100 µM | > 100 µM | > 100 µM | 0.8 µM | 6.71 µM | – | – | 1.92 µM | > 100 µM | 0.398 µM | > 100 µM | 1.6 µM | 356 nM | 367 | 528 nM
